Assays:
[1] = target: T1, soybean lipoxygenase-1 (LOX-1) (Glycine max, UniProt P08170); test: Kinetics of oxygenation of linoleic acid, soybean lysoPC or linoleoyl-lysoPC by soybean LOX-1 (absorbance at 234 nm); assay type: biochemical; conditions: for Km: 50 mM borax buffer pH 9.0, 25° C., Lineweaver Burke plot; for Vm: soybean LOX-1, 50 mM borax buffer pH 9.0, 25° C., unit = one micromole conjugated diene per min
T1 construct: purchased Sigma-Aldrich Corp (St. Louis, Mo., USA) lipoxidase Type I-B
T1 sequence (P08170 1-839): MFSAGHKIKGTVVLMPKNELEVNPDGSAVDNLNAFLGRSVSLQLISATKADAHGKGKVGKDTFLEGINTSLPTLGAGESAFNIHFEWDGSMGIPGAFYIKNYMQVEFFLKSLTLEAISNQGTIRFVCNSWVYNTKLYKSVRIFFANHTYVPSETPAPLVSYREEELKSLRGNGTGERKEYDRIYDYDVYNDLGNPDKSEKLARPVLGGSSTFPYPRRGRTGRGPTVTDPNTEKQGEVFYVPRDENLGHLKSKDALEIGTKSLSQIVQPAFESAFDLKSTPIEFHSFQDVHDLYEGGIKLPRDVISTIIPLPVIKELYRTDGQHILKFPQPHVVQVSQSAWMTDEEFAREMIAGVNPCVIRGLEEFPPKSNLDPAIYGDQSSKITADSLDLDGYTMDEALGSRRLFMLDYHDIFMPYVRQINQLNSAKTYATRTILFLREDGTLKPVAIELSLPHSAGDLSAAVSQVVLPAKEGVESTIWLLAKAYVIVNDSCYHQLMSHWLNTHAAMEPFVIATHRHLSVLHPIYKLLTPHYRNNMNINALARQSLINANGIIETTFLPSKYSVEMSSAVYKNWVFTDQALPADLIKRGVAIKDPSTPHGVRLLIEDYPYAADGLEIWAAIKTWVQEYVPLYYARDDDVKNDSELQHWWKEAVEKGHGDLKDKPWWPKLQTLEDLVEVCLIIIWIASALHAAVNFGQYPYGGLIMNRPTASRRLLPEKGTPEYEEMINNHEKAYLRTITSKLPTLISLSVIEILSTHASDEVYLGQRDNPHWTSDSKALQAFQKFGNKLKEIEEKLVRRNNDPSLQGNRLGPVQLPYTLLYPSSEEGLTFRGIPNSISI
Experimental: Lipoxygenase-1 (LOX-1) activity was monitored at 25° C. by measuring the increase in absorbance at 234 nm due to the formation of hydroperoxide (ε234=25,000 M^−1 cm^−1) as previously reported (Axelrod et al, Methods Enzymol. 71 (1981) 441-451; Egmond et al, Eur. J. Biochem. 61 (1976) 93-100). […] One unit is defined as the amount of LOX-1 that can produce one micromole of conjugated diene per min.
LOX-1 was purified from soy bean lipoxidase preparation (Type I-B) according to the method of Finazzi Agro et al (Finazzi-Agro et al, Biochim. Biophys. Acta 326 (1973) 462-470). Briefly, soybean LOX-1 (100 mg) was dissolved in 0.1 M phosphate buffer (pH 6.8), and applied to DEAE Sephacel (1.5×25 cm). […] Protein amount was determined according to Lowry method (O. H. Lowry, N. J. Rosenbrough, A. L. Farr, R. J. Randall, J. Biol. Chem. 193 (1951) 265-275).
Next, the effect of linoleoyl-lysoPC concentration on LOX-1-catalyzed oxygenation of linoleoyl-lysoPC was examined.

[2] = target: T2, LOX-1 (soybean lipoxygenase) (Glycine max, UniProt P08170); test: pH-dependent oxygenation by LOX, initial velocity of absorbance at 234 nm; assay type: biochemical; conditions: substrate 100 μM; for LOX activity on various pH conditions: 30 sec, 25° C.
T2 construct: purchased Sigma-Aldrich Corp (St. Louis, Mo., USA) lipoxidase Type I-B
T2 sequence (P08170 1-839): T1 sequence (P08170 1-839)
Experimental: FIG. 7 is an absorbance-pH graph showing the effect of pH on the rate of LOX-1-catalyzed oxygenation of linoleoyl-lysoPC where LOX-1 (0.02 units/ml) was incubated with 100 μM of linoleoyl-lysoPC (▪), 100 μM of sodium linoleate (●) or 250 μM of soybean LPC (▴) in buffers of various pHs; 200 mM phosphate (pH 6-8), 50 mM borax (pH 8.5-9.5) and 300 mM sodium bicarbonate (pH 10-11).
LOX-1 (0.02 units/ml) was incubated with linoleoyl-lysoPC (100 μM) in 500 μl of buffers of various pHs (pH 6.0-11) at 25° C. as described before (Began et al, Biochemistry 38 (1999) 13920-13927); 200 mM phosphate (pH 6-8), 50 mM borax (pH 8.5-9.5), 300 mM sodium bicarbonate (pH 10-11). Separately, the oxygenation was started by including LOX-1 (0.02 units/ml) in the reaction mixture containing sodium linoleate (100 μM) in the presence of Tween 20 (25 μM). […]
LO (840 units/ml Sigma, Saint Louis, Mo., USA) was incubated with 1-linoleoyl-lysophosphatidylcholine (100 μM) in 0.5 ml of buffers of various pHs (pH 6.0-11) as shown in Table 4 for 30 sec at 25° C.

Work on `CCCCC/C=C\C/C=C\CCCCCCCC(=O)OCC(O)COP(=O)([O-])OCC[N+](C)(C)C` (stereo not drawn) [Linoleoyl-lysoPC, 1-linoleoyl Lysophosphatidylcholine] yielded a Km [1] of 12.9 µM, a Vm [1] of 167.5 ± 10.4 units/mg and a Vm ([1]; listed as linoleoyl-lysoPC) of 167.5 units/mg. The “optimal pH range for oxygenation by LOX-1” value ([2]; LOX-1 0.02 units/ml, pH 6-11) was “about 9”, the “LOX activity on various pH conditions” value ([2]; pH 6) was “◯” and the “LOX activity on various pH conditions” value ([2]; pH 7) was “◯”. The “LOX activity on various pH conditions” value ([2]; pH 7.5) was “◯”, the “LOX activity on various pH conditions” value ([2]; pH 8) was “◯” and the “LOX activity on various pH conditions” value ([2]; pH 8.5) was “◯”. For the same molecule, the “LOX activity on various pH conditions” value ([2]; pH 9) was “◯”, the “LOX activity on various pH conditions” value ([2]; pH 10) was “◯” and the “LOX activity on various pH conditions” value ([2]; pH 11) was “◯”.

For `CCCCC/C=C\C/C=C\CCCCCCCC(=O)O` [Linoleic acid, linoleic acid], the Km [1] was 12 ± 0.7 µM, the Vm [1] was 114.3 ± 6.0 units/mg and the “LOX activity on various pH conditions” value ([2]; pH 6.5) was “◯”. The “LOX activity on various pH conditions” value ([2]; pH 7) was “◯”, the “LOX activity on various pH conditions” value ([2]; pH 7.5) was “◯” and the “LOX activity on various pH conditions” value ([2]; pH 8) was “◯”. The “LOX activity on various pH conditions” value ([2]; pH 8.5) was “◯”, the “LOX activity on various pH conditions” value ([2]; pH 9) was “◯” and the “LOX activity on various pH conditions” value ([2]; pH 9.5) was “◯”. The “LOX activity on various pH conditions” value ([2]; pH 10) was “◯”, the “LOX activity on various pH conditions” value ([2]; pH 10.5) was “◯” and the “LOX activity on various pH conditions” value ([2]; pH 11) was “◯”.

Source: patent publication US20070264679A1, “Method for analyzing the activity of lipoxygenase using a water-soluble substrate” (Chungnam National University Industry Collaboration …, priority 2006, published 2007)
